Data published in publication PMC4099110, “Synthesis and Evaluation of Novel Pyrroles and Pyrrolopyrimidines as Anti-Hyperglycemic Agents” (BioMed Research International, 2014).

What was measured:
male Wistar albino rats = experiment: Streptozotocin (STZ) model of diabetes, blood glucose AUC; format: in vivo, rat; conditions: decrease in blood glucose relative to Amaryl = 100%; model not stated
Protocol: The complete course of the experiment was conducted using male Wistar albino rats (200-250 g), reared and maintained in the animal house of the institution and provided free access to pelleted food and water ad libitum. The rats were maintained in a controlled environment (12 h light and dark cycle) for about a week for acclimatization. The protocol of the study was approved by the animal ethics committee of the Faculty of Pharmacy, […] University (10-01-2012). The study was conducted in accordance with the EC, directive 86/609/EEC for animal experiments. […] Equivalent doses of all derivatives were calculated according to their molecular weight [M·wt]. Diabetes was induced in overnight fasted rats with a single intraperitoneal injection of streptozotocin (STZ) (Sigma-Aldrich, Co., St. Louis, USA. Catalog number: 1001062761) in a dose of 65 mg/kg. STZ was freshly dissolved in ice cold citrate buffer (0.01 M, pH 4.5) prior to injection. […] Group 2, diabetic + Glimepiride ([…]) (4 mg/kg), served as a reference antidiabetic drug. Groups (3-14) were given the various pyrrole derivatives ([…], b, f, and VIIIf, a, resp.). The treated groups administered the […] and different derivatives orally. For each group, blood glucose was estimated at zero, one, two, four, and six hours after oral administration of derivatives using glucometer (Gluco Dr Super Sensor, AllMedicus Co., Ltd., Anyang, Gyeonggi, Korea). Data were represented as mean area under curve (AUC) ± SD. Significant differences between groups was tested using GraphPad InStat (Graph software Inc., V 3.05, Ralph […], Purdue University). Appropriate graphs were plotted using Microsoft Excel 2007.

| SMILES | melting point [°C] | Potency of antihyperglycemic derivatives compared to Amaryl (male Wistar albino rats) [%] |
| --- | --- | --- |
| Nc1ncnc2c1c(-c1ccccc1)c(-c1ccccc1)n2-c1ccc(Cl)c(Cl)c1 [IIId, 7-(3,4-Dichlorophenyl)-5,6-diphenyl-7H-pyrrolo[2,3-d]pyrimidin-4-amine] | 115 to 118 |  |
| Cc1c(-n2cc(-c3ccccc3)c3c(N)ncnc32)c(=O)n(-c2ccccc2)n1C [IIIe, 4-(4-Amino-5-phenyl-7H-pyrrolo[2,3-d]pyrimidin-7-yl)-1,5-dimethyl-2-phenyl-1H-pyrazol-3(2H)-one] | 152 to 155 |  |
| Nc1nc(=S)[nH]c2c1c(-c1ccccc1)c(-c1ccccc1)n2-c1ccc(Cl)c(Cl)c1 [IIIi, 4-Amino-7-(3,4-dichlorophenyl)-5,6-diphenyl-1H-pyrrolo[2,3-d] pyrimidine-2(7H)-thione] | 90 to 95 |  |
| Cc1c(-n2cc(-c3ccccc3)c3c(N)nc(=S)[nH]c32)c(=O)n(-c2ccccc2)n1C [IIIj, 4-(4-Amino-5-phenyl-2-thioxo-1H-pyrrolo[2,3-d]pyrimidin-7(2H)-yl)-1,5-dimethyl-2-phenyl-1H-pyrazol-3(2H)-one] | 172 to 174 |  |
| O=c1[nH]cnc2c1c(-c1ccccc1)c(-c1ccccc1)n2-c1ccc(Cl)c(Cl)c1 [IId, 7-(3,4-Dichlorophenyl)-5,6-diphenyl-3H-pyrrolo[2,3-d]pyrimidin-4(7H)-one] | 172 to 176 |  |
| Cc1c(-n2cc(-c3ccccc3)c3c(=O)[nH]cnc32)c(=O)n(-c2ccccc2)n1C [IIe, 7-(1,5-Dimethyl-3-oxo-2-phenyl-2,3-dihydro-1H-pyrazol-4-yl)-5-phenyl-3H-pyrrolo[2,3-d]pyrimidin-4(7H)-one] | 205 to 208 |  |
| Cc1nc2c(c(-c3ccccc3)c(-c3ccccc3)n2-c2ccc(Cl)c(Cl)c2)c(=O)[nH]1 [IIi, 7-(3,4-Dichlorophenyl)-2-methyl-5,6-diphenyl-3H-pyrrolo[2,3-d]pyrimidin-4(7H)-one] | 200 to 202 |  |
| Cc1nc2c(c(-c3ccccc3)cn2-c2c(C)n(C)n(-c3ccccc3)c2=O)c(=O)[nH]1 [IIj, 7-(1,5-Dimethyl-3-oxo-2-phenyl-2,3-dihydro-1H-pyrazol-4-yl)-2-methyl-5-phenyl-3H-pyrrolo[2,3-d]pyrimidin-4(7H)-one] | 225 to 227 |  |
| Clc1ccc(-n2c(-c3ccccc3)c(-c3ccccc3)c3c(Cl)ncnc32)cc1Cl [IVd, 4-Chloro-7-(3,4-dichlorophenyl)-5,6-diphenyl-7H-pyrrolo[2,3-d]pyrimidine] | 124 to 128 |  |
| Cc1c(-n2cc(-c3ccccc3)c3c(Cl)ncnc32)c(=O)n(-c2ccccc2)n1C [IVe, 4-(4-Chloro-5-phenyl-7H-pyrrolo[2,3-d]pyrimidin-7-yl)-1,5-dimethyl-2-phenyl-1H-pyrazol-3(2H)-one] | 125 to 130 |  |
| Cc1nc(Cl)c2c(-c3ccccc3)c(-c3ccccc3)n(Cc3ccccc3)c2n1 [IVf, 7-Benzyl-4-chloro-2-methyl-5,6-diphenyl-7H-pyrrolo[2,3-d]pyrimidine] | 120 to 124 |  |
| Cc1nc(Cl)c2c(-c3ccccc3)c(-c3ccccc3)n(-c3ccc(Cl)c(Cl)c3)c2n1 [IVh, 4-Chloro-7-(3,4-dichlorophenyl)-2-methyl-5,6-diphenyl-7H-pyrrolo[2,3-d]pyrimidine] | 108 to 110 |  |
| Cc1nc(Cl)c2c(-c3ccccc3)cn(-c3c(C)n(C)n(-c4ccccc4)c3=O)c2n1 [IVi, 4-(4-Chloro-2-methyl-5-phenyl-7H-pyrrolo[2,3-d]pyrimidin-7-yl)-1,5-dimethyl-2-phenyl-1H-pyrazol-3(2H)-one] | 95 to 100 |  |
| N#Cc1c(-c2ccccc2)c(-c2ccccc2)n(-c2ccc(Cl)c(Cl)c2)c1N [Id, 2-Amino-1-(3,4-dichlorophenyl)-4,5-diphenyl-1H-pyrrole-3-carbonitrile] | 118 to 122 |  |
| CC(=O)Nc1c(C#N)c(-c2ccccc2)c(-c2ccccc2)n1-c1ccc(Cl)c(Cl)c1 [In, N-(3-Cyano-1-(3,4-dichlorophenyl)-4,5-diphenyl-1H -pyrrol-2-yl) acetamide] | 135 to 138 |  |
| CC(=O)Nc1c(C#N)c(-c2ccccc2)cn1-c1c(C)n(C)n(-c2ccccc2)c1=O [Io, N-(3-Cyano-1-(1,5-dimethyl-3-oxo-2-phenyl-2,3-dihydro-1H -pyrazol-4-yl)-4-phenyl-1H -pyrrol-2-yl)acetamide] | 135 to 138 |  |
| N#Cc1c(-c2ccccc2)c(-c2ccccc2)n(-c2ccc(Cl)c(Cl)c2)c1NN=C1C(N)=NN=C1N [VIIId, 2-(2-(3,5-Diamino-4H-pyrazol-4-ylidene)hydrazinyl)-1-(3,4-dichlorophenyl)-4,5-diphenyl-1H-pyrrole-3-carbonitrile] | 120 to 124 |  |
| Cc1c(-n2cc(-c3ccccc3)c(C#N)c2NN=C2C(N)=NN=C2N)c(=O)n(-c2ccccc2)n1C [VIIIe, 2-(2-(3,5-Diamino-4H-pyrazol-4-ylidene)hydrazinyl)-1-(1,5-dimethyl-3-oxo-2-phenyl-2,3-dihydro-1H-pyrazol-4-yl)-4-phenyl-1H-pyrrole-3-carbonitrile] | 135 to 138 |  |
| N#Cc1c(-c2ccccc2)c(-c2ccccc2)n(Cc2ccccc2)c1NN=C1C(N)=NN=C1O [VIIIf, 2-(2-(3-Amino-5-hydroxy-4H-pyrazol-4-ylidene)hydrazinyl)-1-benzyl-4,5-diphenyl-1H-pyrrole-3-carbonitrile] | 97 to 100 |  |
| CCOC(=O)C(C#N)=NNc1c(C#N)c(-c2ccccc2)c(-c2ccccc2)n1Cc1ccccc1 [VIIf, Ethyl 2-(2-(1-Benzyl-3-cyano-4,5-diphenyl-1H-pyrrol-2-yl)hydrazono)-2-cyano-acetate] | 125 to 130 |  |
| S=c1[nH]cnc2c1c(-c1ccccc1)c(-c1ccccc1)n2-c1ccc(Cl)c(Cl)c1 [VId, 7-(3,4-Dichlorophenyl)-5,6-diphenyl-3H-pyrrolo[2,3-d]pyrimidine-4(7H)-thione] | 142 to 166 |  |
| Cc1c(-n2cc(-c3ccccc3)c3c(=S)[nH]cnc32)c(=O)n(-c2ccccc2)n1C [VIe, 1,5-Dimethyl-2-phenyl-4-(5-phenyl-4-thioxo-3H-pyrrolo[2,3-d]pyrimidin-7(4H)-yl)-1H-pyrazol-3(2H)-one] | 142 to 166 |  |
| Cc1nc2c(c(-c3ccccc3)c(-c3ccccc3)n2Cc2ccccc2)c(=S)[nH]1 [VIf, 7-Benzyl-2-methyl-5,6-diphenyl-3H-pyrrolo[2,3-d]pyrimidine-4(7H)-thione] | 165 to 167 |  |
| NNc1ncnc2c1c(-c1ccccc1)c(-c1ccccc1)n2-c1ccc(Cl)c(Cl)c1 [Vd, 7-(3,4-Dichlorophenyl)-4-hydrazinyl-5,6-diphenyl-7H-pyrrolo[2,3-d]pyrimidine] | 122 to 126 |  |
| Cc1c(-n2cc(-c3ccccc3)c3c(NN)ncnc32)c(=O)n(-c2ccccc2)n1C [Ve, 4-(4-Hydrazinyl-5-phenyl-7H-pyrrolo[2,3-d]pyrimidin-7-yl)-1,5-dimethyl-2-phenyl-1H-pyrazol-3(2H)-one] | 142 to 146 |  |
| Cc1nc(NN)c2c(-c3ccccc3)c(-c3ccccc3)n(Cc3ccccc3)c2n1 [Vf, 7-Benzyl-4-hydrazinyl-2-methyl-5,6-diphenyl-7H-pyrrolo[2,3-d] pyrimidine] | 147 to 152 |  |
| Cc1nc(NN)c2c(-c3ccccc3)c(-c3ccccc3)n(-c3c(C)n(C)n(-c4ccccc4)c3=O)c2n1 [Vg, 4-(4-Hydrazinyl-2-methyl-5,6-diphenyl-7H-pyrrolo[2,3-d]pyrimidin-7-yl)-1,5-dimethyl-2-phenyl-1H-pyrazol-3(2H)-one] | 185 to 188 | 36.19 |
| Cc1nc(NN)c2c(-c3ccccc3)c(-c3ccccc3)n(-c3ccc(Cl)c(Cl)c3)c2n1 [Vh, 7-(3,4-Dichlorophenyl)-4-hydrazinyl-2-methyl-5,6-diphenyl-7H-pyrrolo[2,3-d]pyrimidine] | 142 to 146 |  |
| Cc1nc(NN)c2c(-c3ccccc3)cn(-c3c(C)n(C)n(-c4ccccc4)c3=O)c2n1 [Vi, 4-(4-Hydrazinyl-2-methyl-5-phenyl-7H-pyrrolo[2,3-d]pyrimidin-7-yl)-1,5-dimethyl-2-phenyl-1H-pyrazol-3(2H)-one] | 148 to 150 |  |
